Consider five compounds from patent US20250186467A1, “METHODS OF TREATING MEDICAL CONDITIONS USING STAMPIDINE OR A RELATED COMPOUND” (ROME Therapeutics, Inc., priority 2022, published 2025).

Data set [1] addresses HERV-K reverse transcriptase (Homo sapiens, UniProt V9H0F6). The data set is described as follows: Homogeneous time-resolved fluorescence (HTRF) HERV-K RT assay. The settings on record: HERV-K reverse transcriptase (2-596)-8His protein, read-out: IC50, inhibition of HERV-K reverse transcriptase. It counts as biochemical. As to the method:
The HERV-K reverse transcriptase homogeneous time-resolved fluorescence (HTRF) assay was performed in a 384-well format with HERV-K reverse transcriptase (2-596)-8His protein. Baculoviruses were created using Bac-to-Bac technology (Invitrogen). pFastBac donor plasmids containing HERV-K reverse transcriptase sequence (NCBI GenBank number AAC63291.1, J. Virology (1999) Vol. 73, No. 3, pp. 2365-2375) were transformed into DH10 Bac cells following the manufacturer's instructions. Recombinant bacmids were then isolated clonally and transfected into SF9 cells with lipofectin. HERV-K reverse transcriptase was expressed in the SF9 insect cells and then purified using immobilized metal affinity chromatography (IMAC) followed by size-exclusion chromatography (SEC). […]
After incubating at 25° C. for 30 minutes, the detection reagent 20 mM EDTA with streptavidin-terbium cryptate (Cisbio Bioassay) in the PPI buffer (Cisbio Bioassay) was added, and the mixture was incubated at 25° C. for 30 minutes. At the end of the incubation, fluorescence was read at ex/em=337/485 nm and ex/em=337/520 nm on an Envision 2104 plate reader (Perkin Elmer). The fluorescence ratio at 520/485 nm was used for the calculation. […] The IC50 was calculated by fitting the compound dose inhibition curve with a 4-parameter non-linear regression equation.
(In general: Time-resolved FRET reads energy transfer from a long-lived donor to a nearby acceptor.)

Data set [2] relates to THP1-Dual KO-TREX1 cells. The data set is described as follows: CellTiter-Glo cell viability in THP1 TREX1 KO cells. It counts as cell-based. The settings on record: highest dose, with 1 μM 5-aza-2′-deoxycytidine, five days. On the procedure:
THP1 Dual TREX1 KO cells were purchased from Invivogen. The THP1-Dual™ KO-TREX1 cells were cultured in RPMI 1640, 10% heat-inactivated fetal bovine serum, 25 mM HEPES, 10 μg/mL Blasticidin, and 100 μg/mL Zeocin. THP1-Dual™ KO-TREX1 cells were treated with a dose titration of test compound in the presence of 1 μM 5-aza-2′-deoxycytidine (Sigma, cat #189825). Type 1 Interferon and cell viability were assessed after five days of treatment.
Stock solution of test compound was prepared in DMSO followed by a three-fold dilution in DMSO. Additional 50× dilution was prepared in cell culture media for each dilution. 10 μL of diluted test compound was then added to a 384-well plate.
THP1-Dual™ KO-TREX1 cells were treated with 1 μM 5-aza-2′-deoxycytidine. THP1-Dual™ KO-TREX1 cells (50 μL) were added to each well of the 384-well plate containing test compound titration at 10,000 cells/well. Cells were incubated at 37° C., 5% CO2 in a humidified incubator for five days. […] Luminescence was detected on a plate reader according to manufacturer's instructions. […]
The remaining cells were assessed for cell viability by adding 30 μl of CellTiter-Glo (Promega, 09683) solution to each well, and placed on a shaker for 10 minutes at room temperature. Luminescence was detected on a plate reader, according to manufacturer's instructions. […]
In general terms: Cellular ATP, detected with luciferase, serves as a proxy for viable cell number.

For data set [3], the target named is T1, LINE1 reverse transcriptase (Homo sapiens, UniProt O00370). The data set is described as follows: Transient artificial-intron Cis LINE1 reporter assay. It counts as cell-based. The settings on record: HEK 293 cells, ratio FLuc/RLuc reports LINE1 activity; read-out: IC50, inhibition of FLuc (FF/RR). The arrangement: expressed in transfected cells. On the procedure:
Intron-disrupted Firefly luciferase (FLuc) expression cassettes were generated as described by Xie, Y. et al. “Characterization of L1 retrotransposition with high-throughput dual-luciferase assays,” Nucleic Acid Res. (2011) Vol. 39, No. 3, e16. In addition, the plasmid contained an intact Renilla luciferase (RLuc) expression cassette on the vector backbone, in order to normalize transfection efficiency and measure potential cell toxicity.
HEK 293 cells were seeded in 96-well plates at 1,000 cells/well in 55 μL and grown for 24 hours. Cells were transfected with FuGeneHD (Promega) following the manufacturer's protocol. Each well received 0.133 ng plasmid, 0.4 μL FuGeneHD reagent, and 4.5 μL GlutaMAX-I-supplemented Opti-MEM I reduced-serum medium (Invitrogen). Cells were simultaneously treated with test compound serially diluted starting at 100 μM in a 3-fold dilution dose response.
Luminescence was measured using the Dual-Glo Luciferase Assay System (Promega) following the manufacturer's instructions. The ratio between FLuc and RLuc gene expression was used to report LINE1 activity.
In general terms: A reporter such as luciferase makes a cellular process visible.

Data set [4] deals with T1, LINE1 reverse transcriptase. As to the kind of experiment: Homogeneous time-resolved fluorescence (HTRF) LINE1 RT assay. It counts as biochemical. The arrangement: recombinant MBP-tagged LINE1 protein (238-1061); MBP; made in house. As to conditions: recombinant MBP-tagged LINE1 protein (238-1061), read-out: IC50, inhibition of LINE1 reverse transcriptase. On the procedure:
The LINE1 reverse transcriptase homogeneous time-resolved fluorescence (HTRF) assay was performed with recombinant MBP-tagged LINE1 protein (238-1061) (generated and purified according to procedures in Dai L. et al. BMC Biochemistry 2011; 12:18) in a 384-well format. Test compound was serially diluted in DMSO and further diluted in the assay buffer (50 mM Tris-HCl, 50 mM KCl, 10 mM MgCl2, 10 mM DTT, pH 8.1) to achieve a final DMSO concentration of 1%. The serially diluted compound was mixed with 64 ng/well of LINE1 enzyme, 5 nM of pre-annealed template/biotin-primer pair (synthesized at Generay Biotechnology), 10 nM of Fluorescein-12-dATP fluorescent probe (Perkin Elmer), and 1 μM dGTP/dCTP/dTTP (Thermo Fisher Scientific) in the assay buffer. The template/biotin-primer sequences were as follows:
After incubating at 25° C. for 60 minutes, the detection reagent (20 mM EDTA with streptavidin-terbium cryptate, Cisbio Bioassay) in the PPI buffer (Cisbio Bioassay) was added, and the mixture was incubated at 25° C. for 30 minutes. At the end of the incubation, fluorescence was read at ex/em=337/485 nm and ex/em=337/520 nm on an Envision 2104 plate reader (Perkin Elmer). The fluorescence ratio at 520/485 nm was used for the calculation. […] The IC50 was calculated by fitting the compound dose inhibition curve with a 4-parameter non-linear regression equation.

The target is the same in data set [5]. The data set is described as follows: Stable artificial-intron Cis LINE1 reporter assay. The settings on record: HeLa L1 artificial-intron reporter cells, doxycycline induced, 72 h, Firefly luciferase; read-out: IC50, inhibition of LINE1 reverse transcriptase. The data set is classed as cell-based. Set-up: expressed in transfected cells; host or cells: HeLa Tet-On 3G (Takara, cat no 631183). From the text: A stable HeLa Tet-On 3G (Takara, cat no 631183) cell line expressing a bi-directional inducible LINE1 construct was generated as described in Xie, Y. et al. “Cell division promotes efficient retrotransposition in a stable L1 reporter cell line,” Mobile DNA (2013) 4:10. Single cell clones were screened for high Luciferase expression and the highest expression Firefly expressing clone was chosen for compound testing.
Test compound was serially diluted in DMSO and spotted in 96-well plates. Subsequently the HeLa L1 artificial-intron reporter cells were plated into the compound-containing wells (8,000 cells/well), and the cells were induced for reporter expression with doxycycline (Sigma cat no D9891) at a final concentration of 500 ng/mL. Luminescence was measured 72 h after plating using the Dual-Glo Luciferase Assay System (Promega cat no E2940) following the manufacturer's instructions. The Firefly Luciferase activity was used to report LINE1 activity.

HERV-K reverse transcriptase, sequence (V9H0F6 entry or part of it): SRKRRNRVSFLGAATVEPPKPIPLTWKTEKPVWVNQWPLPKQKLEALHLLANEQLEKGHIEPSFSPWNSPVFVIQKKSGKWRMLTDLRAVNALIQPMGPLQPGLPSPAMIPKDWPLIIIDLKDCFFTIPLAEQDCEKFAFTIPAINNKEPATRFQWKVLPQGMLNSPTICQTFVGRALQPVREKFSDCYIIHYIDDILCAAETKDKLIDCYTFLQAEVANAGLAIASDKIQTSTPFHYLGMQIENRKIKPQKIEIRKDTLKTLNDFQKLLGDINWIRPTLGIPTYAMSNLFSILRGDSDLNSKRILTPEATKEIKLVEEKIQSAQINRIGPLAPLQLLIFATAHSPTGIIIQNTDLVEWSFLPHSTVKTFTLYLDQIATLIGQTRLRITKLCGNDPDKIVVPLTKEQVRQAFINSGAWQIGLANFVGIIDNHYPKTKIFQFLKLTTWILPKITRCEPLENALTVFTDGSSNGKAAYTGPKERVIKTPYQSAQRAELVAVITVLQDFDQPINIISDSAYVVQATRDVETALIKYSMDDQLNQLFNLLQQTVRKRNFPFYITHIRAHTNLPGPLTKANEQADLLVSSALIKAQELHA

`Cc1cn([C@H]2C=C[C@@H](COP(=O)(O)OP(=O)(O)OP(=O)(O)O)O2)c(=O)[nH]c1=O` [drawing 39]: in data set [1], the IC50 is 0.042 µM.

For the compound `Cc1cn([C@H]2C=C[C@@H](CO)O2)c(=O)[nH]c1=O` [stavudine, 1-((2R,5S)-5-(hydroxymethyl)-2,5-dihydrofuran-2-yl)-5-methylpyrimidine-2,4(1H,3H)-dione, reference compound], in data set [2], the “reduction in cell viability” value is reported as ~10%.

Regarding `COC(=O)[C@H](C)NP(=O)(OC[C@@H]1C=C[C@H](n2cc(C)c(=O)[nH]c2=O)O1)Oc1ccc(Br)cc1` (some centres unmarked) [drawing 36], in data set [3], the IC50 is 0.0057 µM. `Cc1cn([C@H]2C=C[C@@H](COP(=O)(O)OP(=O)(O)OP(=O)(O)O)O2)c(=O)[nH]c1=O` [drawing 38]: in data set [4], the IC50 turned out to be 0.023 µM. As to `COC(=O)[C@H](C)NP(=O)(OC[C@@H]1C=C[C@H](n2cc(C)c(=O)[nH]c2=O)O1)Oc1ccc(Br)cc1` (some centres unmarked) [drawing 37], the IC50 in data set [5] was 0.017 µM.
